Results: patent US12384770B2, “Heterocyclic compound” (Takeda Pharmaceutical Company Limited, priority 2019, dated 2025)

Biological target: T1, HDAC6 enzyme (Homo sapiens, UniProt Q9UBN7)
T1 construct: HDAC6 enzyme prepared by transducing full length HDAC6 gene into Sf-9 insect cells; GST; purchased SignalChem; host or cells: Sf-9 insect cells
T1 sequence (Q9UBN7 1-1215): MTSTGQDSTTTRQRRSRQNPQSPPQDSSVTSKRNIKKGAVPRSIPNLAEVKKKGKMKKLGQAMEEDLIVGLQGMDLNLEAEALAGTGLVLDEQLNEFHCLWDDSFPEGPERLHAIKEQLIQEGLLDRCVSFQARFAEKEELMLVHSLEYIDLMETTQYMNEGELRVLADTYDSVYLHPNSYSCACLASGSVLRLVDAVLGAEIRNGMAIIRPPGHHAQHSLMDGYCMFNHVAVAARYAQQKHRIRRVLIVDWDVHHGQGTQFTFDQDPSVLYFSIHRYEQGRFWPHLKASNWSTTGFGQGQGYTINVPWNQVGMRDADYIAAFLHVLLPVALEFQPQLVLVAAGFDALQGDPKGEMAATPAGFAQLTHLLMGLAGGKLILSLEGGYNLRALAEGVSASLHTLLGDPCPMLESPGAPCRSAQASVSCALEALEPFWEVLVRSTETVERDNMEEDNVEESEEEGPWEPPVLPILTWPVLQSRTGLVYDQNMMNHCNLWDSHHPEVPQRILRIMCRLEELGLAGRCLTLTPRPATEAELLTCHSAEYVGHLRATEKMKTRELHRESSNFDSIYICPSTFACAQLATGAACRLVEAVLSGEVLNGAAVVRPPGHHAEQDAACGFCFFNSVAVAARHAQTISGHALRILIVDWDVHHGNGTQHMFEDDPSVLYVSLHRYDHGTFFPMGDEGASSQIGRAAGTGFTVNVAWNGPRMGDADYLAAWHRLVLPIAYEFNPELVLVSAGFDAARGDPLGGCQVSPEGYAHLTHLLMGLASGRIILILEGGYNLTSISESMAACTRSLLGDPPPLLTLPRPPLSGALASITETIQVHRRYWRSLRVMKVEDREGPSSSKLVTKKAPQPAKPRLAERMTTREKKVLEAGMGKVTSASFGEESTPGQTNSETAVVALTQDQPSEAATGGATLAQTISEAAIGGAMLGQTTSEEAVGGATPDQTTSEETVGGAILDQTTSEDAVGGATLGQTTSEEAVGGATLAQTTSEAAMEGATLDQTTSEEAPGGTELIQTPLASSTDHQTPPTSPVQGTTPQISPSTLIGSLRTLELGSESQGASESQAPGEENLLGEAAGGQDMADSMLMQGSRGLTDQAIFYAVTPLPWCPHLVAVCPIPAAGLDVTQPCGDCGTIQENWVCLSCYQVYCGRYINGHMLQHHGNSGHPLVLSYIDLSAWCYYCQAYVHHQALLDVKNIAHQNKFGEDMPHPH
Assay: HDAC6 enzyme inhibitory assay (HDAC-Glo I/II Assay kit)
Type: biochemical
Conditions: wells without enzyme = 100% inhibition, read-out: HDAC6 inhibitory rate (%) (10 μM)
Protocol: Experimental Example 1 HDAC6 Enzyme Inhibitory Assay
HDAC6 enzyme prepared by transducing full length HDAC6 gene into Sf-9 insect cells and purifying by GST affinity column were purchased from SignalChem. Using this enzyme, HDAC6 enzyme inhibitory activity of the compound of the present invention were evaluated. Enzymes were used after preserved at −70° C. HDAC6 enzyme inhibitory activity of the compound of the present invention was measured using HDAC-Glo™ I/II Assay kit (Promega) according to the following experimental method. The test compound diluted with assay buffer (24 mM Tris-HCl (pH 7.5), 1 mM MgCl2, 0.35 mM KCl, 135 mM NaCl, 0.6 mM Glutathione, 0.01% Tween-20) was added to a 384-well plate by each 2 μL. Then, HDAC6 enzyme solution diluted with assay buffer was added thereto by each 4 μL, and the plate was incubated at room temperature for 60 min. After incubated, HDAC substrate-Developer solution prepared according to Promega protocol attached to the assay kit was added to the 384-well plate by each 2 μL, and the enzyme reaction was started. After reacting at room temperature for 20 min, luminescence level was measured using plate reader Envision (PerkinElmer). The inhibitory activity of each compound of Example was calculated as a relative activity value when luminescence level in wells without enzyme is considered as 100% inhibition.

inhibition at 10 µM [%] | Compound
100 | N#Cc1ccc([C@H]([C@@H](O)c2ccccc2)N2Cc3ccc(-c4nnc(C(F)F)o4)cc3C2=O)cc1 (racemic) [Example 41, 4-[(1RS,2SR)-1-{6-[5-(difluoromethyl)-1,3,4-oxadiazol-2-yl]-1-oxo-1,3-dihydro-2H-isoindol-2-yl}-2-hydroxy-2-phenylethyl]benzonitrile]
100 | Cn1cc([C@H]([C@@H](O)c2ccccc2)N2Cc3ccc(-c4nnc(C(F)F)o4)cc3C2=O)cn1 (racemic) [Example 42, 6-[5-(difluoromethyl)-1,3,4-oxadiazol-2-yl]-2-[(1RS,2SR)-2-hydroxy-1-(1-methyl-1H-pyrazol-4-yl)-2-phenylethyl]-2,3-dihydro-1H-isoindol-1-one]
100 | Cn1cc([C@H]([C@@H](O)c2ccc(F)cc2)N2Cc3ccc(-c4nnc(C(F)F)o4)cc3C2=O)cn1 (racemic) [Example 43, 6-[5-(difluoromethyl)-1,3,4-oxadiazol-2-yl]-2-[(1RS,2SR)-2-(4-fluorophenyl)-2-hydroxy-1-(1-methyl-1H-pyrazol-4-yl)ethyl]-2,3-dihydro-1H-isoindol-1-one]
100 | CCOc1ccc([C@H](O)[C@@H](c2ccccc2)N2Cc3ccc(-c4nnc(C(F)F)o4)cc3C2=O)cn1 (racemic) [Example 44, 6-[5-(difluoromethyl)-1,3,4-oxadiazol-2-yl]-2-[(1RS,2SR)-2-(6-ethoxypyridin-3-yl)-2-hydroxy-1-phenylethyl]-2,3-dihydro-1H-isoindol-1-one]
100 | CCOc1ccc([C@H]([C@@H](O)c2ccc(F)c(F)c2)N2Cc3ccc(-c4nnc(C(F)F)o4)cc3C2=O)cn1 (racemic) [Example 53, 6-[5-(difluoromethyl)-1,3,4-oxadiazol-2-yl]-2-[(1RS,2SR)-2-(3,4-difluorophenyl)-1-(6-ethoxypyridin-3-yl)-2-hydroxyethyl]-2,3-dihydro-1H-isoindol-1-one]
100 | O=C1c2cc(-c3nnc(C(F)F)o3)ccc2CN1[C@H](c1ccc(F)nc1)[C@@H](O)c1ccc(F)c(F)c1 (racemic) [Example 56, 6-[5-(difluoromethyl)-1,3,4-oxadiazol-2-yl]-2-[(1RS,2SR)-2-(3,4-difluorophenyl)-1-(6-fluoropyridin-3-yl)-2-hydroxyethyl]-2,3-dihydro-1H-isoindol-1-one]
100 | O=C1c2cc(-c3nnc(C(F)F)o3)ccc2CN1[C@H](c1ccc(F)cc1)[C@@H](O)c1ccc(F)nc1 (racemic) [Example 58, 6-[5-(difluoromethyl)-1,3,4-oxadiazol-2-yl]-2-[(1RS,2SR)-1-(4-fluorophenyl)-2-(6-fluoropyridin-3-yl)-2-hydroxyethyl]-2,3-dihydro-1H-isoindol-1-one]
98 | O=C1c2cc(-c3nnc(C(F)F)o3)ccc2CN1[C@H](C1CC1)[C@@H](O)c1ccc(Cl)cn1 (racemic) [Example 65, 2-[(1RS,2RS)-2-(5-chloropyridin-2-yl)-1-cyclopropyl-2-hydroxyethyl]-6-[5-(difluoromethyl)-1,3,4-oxadiazol-2-yl]-2,3-dihydro-1H-isoindol-1-one]
100 | O=C1c2cc(-c3nnc(C(F)F)o3)ccc2CN1[C@H](C1CCC(F)(F)CC1)[C@@H](O)c1ccccn1 (racemic) [Example 81, 2-[(1RS,2RS)-1-(4,4-difluorocyclohexyl)-2-hydroxy-2-(pyridin-2-yl)ethyl]-6-[5-(difluoromethyl)-1,3,4-oxadiazol-2-yl]-2,3-dihydro-1H-isoindol-1-one]
100 | O=C1c2cc(-c3nnc(C(F)F)o3)ccc2CN1[C@H](C1CCC(F)(F)CC1)[C@@H](O)c1ccc(F)nc1 (racemic) [Example 82, 2-[(1RS,2SR)-1-(4,4-difluoro-cyclohexyl)-2-(6-fluoropyridin-3-yl)-2-hydroxyethyl]-6-[5-(difluoromethyl)-1,3,4-oxadiazol-2-yl]-2,3-dihydro-1H-isoindol-1-one]
100 | O=C1c2cc(-c3nnc(C(F)F)o3)ccc2CN1[C@H](c1ncccn1)[C@@H](O)c1ccc(Cl)cc1 (racemic) [Example 93, 2-[(1RS,2SR)-2-(4-chlorophenyl)-2-hydroxy-1-(pyrimidin-2-yl)ethyl]-6-[5-(difluoromethyl)-1,3,4-oxadiazol-2-yl]-2,3-dihydro-1H-isoindol-1-one]
100 | O=C1c2cc(-c3nnc(C(F)F)o3)ccc2CN1[C@H](C1CCOCC1)[C@@H](O)c1cc(F)cc(Cl)c1 (racemic) [Example 106, 2-[(1RS,2SR)-2-(3-chloro-5-fluorophenyl)-2-hydroxy-1-(oxan-4-yl)ethyl]-6-[5-(difluoromethyl)-1,3,4-oxadiazol-2-yl]-2,3-dihydro-1H-isoindol-1-one]
101 | O=C1c2cc(-c3nnc(C(F)F)o3)ccc2CN1[C@H](C1CCOCC1)[C@@H](O)c1ccc(F)c(Cl)c1 (racemic) [Example 107, 2-[(1RS,2SR)-2-(3-chloro-4-fluorophenyl)-2-hydroxy-1-(oxan-4-yl)ethyl]-6-[5-(difluoromethyl)-1,3,4-oxadiazol-2-yl]-2,3-dihydro-1H-isoindol-1-one]
101 | O=C1c2cc(-c3nnc(C(F)F)o3)ccc2CN1[C@H](C1CCOCC1)[C@@H](O)c1cccc(C(F)(F)F)c1 (racemic) [Example 116, 6-[5-(difluoromethyl)-1,3,4-oxadiazol-2-yl]-2-{(1RS,2SR)-2-hydroxy-1-(oxan-4-yl)-2-[3-(trifluoromethyl)phenyl]ethyl}-2,3-dihydro-1H-isoindol-1-one]
100 | O=C1c2cc(-c3nnc(C(F)F)o3)ccc2CN1[C@H](c1ncccn1)[C@@H](O)c1cccc(Cl)c1 (racemic) [Example 133, 2-[(1RS,2SR)-2-(3-chlorophenyl)-2-hydroxy-1-(pyrimidin-2-yl)ethyl]-6-[5-(difluoromethyl)-1,3,4-oxadiazol-2-yl]-2,3-dihydro-1H-isoindol-1-one]
101 | O=C1c2cc(-c3nnc(C(F)F)o3)ccc2CN1[C@H](c1ncccn1)[C@@H](O)c1ccc(F)cc1 (racemic) [Example 134, 6-[5-(difluoromethyl)-1,3,4-oxadiazol-2-yl]-2-[(1RS,2SR)-2-(4-fluorophenyl)-2-hydroxy-1-(pyrimidin-2-yl)ethyl]-2,3-dihydro-1H-isoindol-1-one]
99 | O=C1c2cc(-c3nnc(C(F)F)o3)ccc2CN1[C@H](c1ccccn1)[C@H](O)c1ccccn1 (racemic) [Example 135, 6-[5-(difluoromethyl)-1,3,4-oxadiazol-2-yl]-2-[(1RS,2SR)-2-hydroxy-1,2-di(pyridin-2-yl)ethyl]-2,3-dihydro-1H-isoindol-1-one]
99 | O=C1c2cc(-c3nnc(C(F)F)o3)ccc2CN1[C@H](c1ncccn1)[C@H](O)c1cccc(F)c1 (racemic) [Example 136, 6-[5-(difluoromethyl)-1,3,4-oxadiazol-2-yl]-2-[(1RS,2RS)-2-(3-fluorophenyl)-2-hydroxy-1-(pyrimidin-2-yl)ethyl]-2,3-dihydro-1H-isoindol-1-one]
99 | O=C1c2cc(-c3nnc(C(F)F)o3)ccc2CN1[C@@H](c1ccc(F)cc1)[C@@H](O)c1ccccc1 (racemic) [Example 138, 6-[5-(difluoromethyl)-1,3,4-oxadiazol-2-yl]-2-[(1SR,2SR)-1-(4-fluorophenyl)-2-hydroxy-2-phenylethyl]-2,3-dihydro-1H-isoindol-1-one]
